Data from the supplement of paper PMC10307832.

Assays:
Assay in all cases: relative viability (nuclei count vs DMSO), 5 days (fraction); higher = more cells survive
Pictilisib + Vorinostat = compound: CS(=O)(=O)N1CCN(Cc2cc3nc(-c4cccc5[nH]ncc45)nc(N4CCOCC4)c3s2)CC1 [Pictilisib] + O=C(CCCCCCC(=O)Nc1ccccc1)NO [Vorinostat] (partner 1 µM)
Procedure, shortened: (§1)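 Relative viability divides the nuclei count in treated wells by that in vehicle wells. Lung cancer cell lines were seeded in 1536-well plates, dosed by pin tool the next day, and fixed and stained after 5 days in one step with final 0.05% Triton X-100, 1% formaldehyde and 1 ug/ml Hoechst. Dosing was a single drug or a fixed anchor-drug dose plus five library-drug doses (not always all listed) in √10 steps, and values are medians of duplicate plates imaged at 4×.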

MK-2206 + Palbociclib = compound: NC1(c2ccc(-c3nc4ccn5c(=O)[nH]nc5c4cc3-c3ccccc3)cc2)CCC1 [MK-2206] + CC(=O)c1c(C)c2cnc(Nc3ccc(N4CCNCC4)cn3)nc2n(C2CCCC2)c1=O [Palbociclib] (partner 0.5 µM)
Procedure, shortened: as §1

MK-2206 + Luminespib = compound: NC1(c2ccc(-c3nc4ccn5c(=O)[nH]nc5c4cc3-c3ccccc3)cc2)CCC1 [MK-2206] + CCNC(=O)c1noc(-c2cc(C(C)C)c(O)cc2O)c1-c1ccc(CN2CCOCC2)cc1 [Luminespib] (partner 0.01 µM)
Procedure, shortened: as §1

MK-2206 + Crizotinib = compound: NC1(c2ccc(-c3nc4ccn5c(=O)[nH]nc5c4cc3-c3ccccc3)cc2)CCC1 [MK-2206] + C[C@@H](Oc1cc(-c2cnn(C3CCNCC3)c2)cnc1N)c1c(Cl)ccc(F)c1Cl [Crizotinib] (partner 1 µM)
Procedure, shortened: as §1

MK-2206 + Linsitinib = compound: NC1(c2ccc(-c3nc4ccn5c(=O)[nH]nc5c4cc3-c3ccccc3)cc2)CCC1 [MK-2206] + C[C@]1(O)C[C@@H](c2nc(-c3ccc4ccc(-c5ccccc5)nc4c3)c3c(N)nccn32)C1 [Linsitinib] (partner 1 µM)
Procedure, shortened: as §1

Cell Line	relative viability (Pictilisib + Vorinostat; first compound 0.02 µM)	relative viability (Pictilisib + Vorinostat; first compound 0.06325 µM)	relative viability (Pictilisib + Vorinostat; first compound 0.6325 µM)	relative viability (Pictilisib + Vorinostat; first compound 2 µM)	relative viability (MK-2206 + Palbociclib; first compound 0.01 µM)	relative viability (MK-2206 + Palbociclib; first compound 0.03162 µM)	relative viability (MK-2206 + Palbociclib; first compound 0.3162 µM)	relative viability (MK-2206 + Palbociclib; first compound 1 µM)	relative viability (MK-2206 + Luminespib; first compound 0.01 µM)	relative viability (MK-2206 + Luminespib; first compound 0.03162 µM)	relative viability (MK-2206 + Luminespib; first compound 0.3162 µM)	relative viability (MK-2206 + Luminespib; first compound 1 µM)	relative viability (MK-2206 + Crizotinib; first compound 0.01 µM)	relative viability (MK-2206 + Crizotinib; first compound 0.03162 µM)	relative viability (MK-2206 + Crizotinib; first compound 0.3162 µM)	relative viability (MK-2206 + Crizotinib; first compound 1 µM)	relative viability (MK-2206 + Linsitinib; first compound 0.01 µM)	relative viability (MK-2206 + Linsitinib; first compound 0.03162 µM)	relative viability (MK-2206 + Linsitinib; first compound 0.3162 µM)	relative viability (MK-2206 + Linsitinib; first compound 1 µM)
H3255	0.813	0.779	0.788	0.414	0.313	0.302	0.283	0.288	0.872	1.12	0.754	0.835	0.833	0.913	0.729	0.616	0.975	0.924	0.847	0.726
NCI-H2126	0.794	0.732	0.504	0.317	0.372	0.358	0.357	0.335	0.9	0.877	0.856	0.752	1.01	1.02	1.01	0.979	0.742	0.634	0.63	0.686
LU99A	0.548	0.593	0.327	0.225	0.41	0.419	0.413	0.35	0.284	0.251	0.268	0.203	0.609	0.647	0.524	0.535	0.51	0.506	0.523	0.421
HOP-62	0.676	0.573	0.566	0.348	0.407	0.468	0.452	0.485	0.91	0.899	0.919	0.854	1.04	0.945	0.903	1.03	0.783	0.757	1.01	0.998
HCC-15	0.841	0.818	0.707	0.535	0.695	0.792	0.662	0.653	0.404	0.232	0.413	0.292	0.824	0.823	0.868	0.769	0.92	0.897	0.846	0.852
HARA	0.712	0.35	0.299	0.239	0.268	0.343	0.27	0.221	0.798	1.06	0.77	0.839	1.11	1.08	0.986	0.979	0.907	0.919	0.906	0.922
SK-MES-1	1.11	1.12	0.856	0.511	0.327	0.296	0.289	0.256	0.901	0.756	0.751	0.751	0.953	1.02	1.04	0.816	1.03	1.1	1.05	1.06
NCI-H1355	0.62	0.624	0.589	0.257	0.39	0.392	0.362	0.329	0.799	0.689	0.752	0.696	1.07	1.03	1.08	0.914	0.768	0.805	0.726	0.786
NCI-H727	1.04	1.29	1.11	0.867	0.775	0.658	0.638	0.625	0.328	0.306	0.337	0.345	0.809	0.903	0.666	0.568	0.308	0.313	0.244	0.27
NCI-H520	0.794	0.73	0.353	0.203	0.215	0.218	0.153	0.149	0.213	0.214	0.203	0.207	0.833	0.741	0.42	0.421	1.13	0.933	0.52	0.542
NCI-H838	0.731	0.632	0.648	0.53	0.223	0.226	0.203	0.193	0.288	0.303	0.244	0.282	0.857	0.812	0.834	0.765	1	1.03	1.02	0.95
HCC-44	1.19	1.14	1.17	0.783	0.918	0.938	0.974	0.946	1.05	1.2	1.21	1.09	0.826	0.787	0.756	0.818	0.662	0.652	0.556	0.445
LK-2	0.292	0.291	0.214	0.139	0.605	0.881	0.68	0.457	0.173	0.199	0.212	0.17	0.211	0.236	0.229	0.211	0.511	0.641	0.627	0.699
HCC-827	0.827	0.811	0.829	0.559	0.568	0.542	0.292	0.344	0.638	0.723	0.421	0.636	0.966	0.874	0.977	0.98	1.01	0.989	0.982	0.914
SW 1573	0.767	0.733	0.35	0.217	0.571	0.335	0.294	0.298	0.275	0.192	0.201	0.184	0.814	0.762	0.493	0.748	0.751	0.824	0.665	0.592
NCI-H2023	0.685	0.662	0.35	0.178	0.39	0.347	0.297	0.208	0.681	0.66	0.619	0.413	0.614	0.686	0.481	0.387	0.642	0.586	0.438	0.312
EPLC-272H	0.477	0.403	0.449	0.23	0.32	0.287	0.315	0.328	0.585	0.263	0.338	0.323	0.951	0.928	–	1.01	1.17	1.18	–	1.15
SK-LU-1	0.857	0.818	0.618	0.511	0.431	0.433	0.375	0.353	0.217	0.209	0.211	0.195	0.941	0.912	0.964	0.877	1.19	1.02	0.987	1.01
NCI-H358	0.816	0.693	0.603	0.264	0.16	0.124	0.138	0.141	0.0868	0.829	0.234	0.318	0.773	0.638	0.563	0.562	0.79	0.707	0.542	0.602
ABC-1	0.83	1.07	0.859	0.691	0.809	0.669	0.641	0.605	0.601	0.334	0.481	0.391	1.3	1.26	1.14	1.02	0.799	0.742	0.881	0.868
NCI-H2085	0.792	0.832	0.498	0.319	0.433	0.558	0.397	0.522	0.508	0.393	0.489	0.384	0.887	0.888	0.876	0.724	0.915	0.85	0.815	0.692
NCI-H2087	0.61	1.06	0.919	0.539	0.225	0.226	0.184	0.217	0.158	0.155	0.187	0.128	0.777	0.889	0.749	0.835	0.965	0.906	0.791	0.914
NCI-H322M	0.955	0.888	0.741	0.543	0.51	0.469	0.519	0.527	0.91	0.95	0.825	0.882	0.934	0.986	0.941	0.979	0.912	0.949	0.869	0.942
NCI-H1734	0.878	0.779	0.482	0.375	0.238	0.369	0.28	0.264	0.194	0.168	0.193	0.148	0.772	0.725	0.468	0.521	0.816	0.934	0.632	0.584
NCI-H2228	0.524	0.72	0.434	0.253	0.586	0.848	0.487	0.725	0.167	0.188	0.14	0.145	0.445	0.348	0.343	0.339	0.546	0.677	0.303	0.264
EKVX	0.734	0.538	0.56	0.254	0.542	0.458	0.363	0.352	0.991	0.872	0.801	0.69	0.897	1.1	0.858	0.868	0.96	1.09	0.846	0.801
NCI-H1975	0.708	0.665	0.386	0.204	0.604	0.529	0.49	0.168	0.126	0.199	0.204	0.144	0.96	0.866	0.855	0.894	1.02	0.81	0.679	0.72
